# US12466863B2, “Nuclear reprogramming factor and induced pluripotent stem cells” (Kyoto University, priority 2005, dated 2025)
# Assays:
# [1] = tested on: MEFs with Nanog-EGFP-IRES-Puro; experiment: GFP-positive colonies from Nanog-EGFP-IRES-Puro MEFs after 4-factor transduction and puromycin selection; assay type: cell-based, mouse; conditions: PD98059 25 μM continuously from the next day of retroviral transfection; 4 factors; 8% without PD98059
# Description: Studies were made as to whether iPS cells could be established with a reporter other than Fbx15-βgeo. Escherichia coli artificial chromosome (BAC) containing the Nanog gene in the center was isolated, and then the GFP gene and the puromycin resistance gene were knocked in by recombination in E. coli (FIG. 12A). Subsequently, the above modified BAC was introduced into ES cells to confirm that the cells became GFP-positive in an undifferentiated state specific manner (data not shown). Then, these ES cells were transplanted in mouse blastocysts to create transgenic mice via chimeric mice. In these mice, GFP-positive cells were specifically observed in inner cell masses of the blastocysts or gonads of embryos at 13.5 days after fertilization (FIG. 12B). The gonads were removed from the embryos at 13.5 days after fertilization (hybrid of DBA, 129, and C57BL/6 mice), and MEFs were isolated. The isolated MEFs were confirmed to be GFP-negative (FIG. 13) by flow cytometry. These MEFs were retrovirally transduced with the 4 factors and subjected to puromycin selection, and as a result, a plural, number of resistant colonies were obtained. Only about 10 to 20% of the colonies were GFP-positive. When the GFP-positive colonies were passaged, they gave morphology (FIG. 14) and proliferation (FIG. 15) similar to those of ES cells. […]
# [2] = tested on: MEFs derived from the Fbx15^βgeo/βgeo mouse; experiment: Effect of cytokine (bFGF- or SCF-producing STO feeder cells) on iPS cell establishment; assay type: cell-based; conditions: no colony on normal STO cells
# Description: An effect of cytokine on iPS cell establishment was investigated. Expression vector (pMX retroviral vector) for basic fibroblast growth factor (bFGF) or stem cell factor (SCF) was transduced into feeder cells (STO cells) to establish cells permanently expressing the cytokines. […] As a result, the number of formed colonies increased 20 times or higher on the STO cells producing bFGF (FIG. 11) or SCF (data not shown), as compared with the culture on normal STO cells.
Compound,percentage of GFP-positive colonies [1],iPS cell colony formation with the 3 factors other than c-Myc [2]
COc1cccc(-c2cc(=O)c3ccccc3o2)c1N [PD98059],45%,
SCF: cytokine produced by STO feeder cells transduced with pMX expression vector,,colony formation was observed
bFGF: cytokine produced by STO feeder cells transduced with pMX expression vector,,colony formation was observed
